Data on nine compounds can be found in patent publication US20260022143A1, “Cyclic Peptide Inhibitors of IL-23” (JANSSEN PHARMACEUTICA NV, priority 2022, published 2026).

Counter-ions that a name gives are not always drawn. Positions of bridges follow the written chain, without caps; N, C: chain ends. Non-standard residues stand in square brackets, D forms with d. Residues, ends and D or L forms follow the SMILES beside them. *: point of attachment. Me3N+(CH2)2O(CH2)2O(CH2)2CO = C[N+](C)(C)CCOCCOCCC(=O)*; Trp(7-Me) = Cc1cccc2c(C[C@H](N)C(=O)O)c[nH]c12; Hexanoyl(6-NMe3+) = C[N+](C)(C)CCCCCC(=O)*; X83 = CN(CCC[N+](C)(C)CCCC[N+](C)(C)C)CC*; 2Nal = N[C@@H](Cc1ccc2ccccc2c1)C(=O)O; AEF = NCCOc1ccc(C[C@H](N)C(=O)O)cc1; dNMeY = CN[C@H](Cc1ccc(O)cc1)C(=O)O; 3Pal = N[C@@H](Cc1cccnc1)C(=O)O; Lys(Me) = CNCCCC[C@H](N)C(=O)O; Pen = CC(C)(S)[C@H](N)C(=O)O; αMeK = C[C@](N)(CCCCN)C(=O)O; X70 = C[N+](C)(C)CCO/N=C\C*; Thp = NC1(C(=O)O)CCOCC1; Dap = NC[C@H](N)C(=O)O; X3 = C[N+](C)(C)CCCCC*; Tfa = O=C(C(F)(F)F)*; Sar = CNCC(=O)O

The nature of the data set: Exposed Polar Surface Area (EPSA). The class given is physicochemical. As to conditions: SFC on Chirex 3014 column; sample 1 mM DMSO stock; read-out: EPSA. In a few lines:
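SFC retention on a Chirex 3014 (S-valine/(R)-1-(α-naphthyl)ethylamine) column at 35 °C, 4 mL/min, 14 MPa outlet, 5–60% methanol/20 mM ammonium formate gradient in CO2. Retention times converted to EPSA (Å²) via linear calibration with 8 standards; samples from 1 mM DMSO stock, run in duplicate.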
Regarding `CC(=O)NCCCC[C@@H]1NC(=O)[C@H](Cc2c[nH]c3c(C)cccc23)NC(=O)[C@H]([C@@H](C)O)NC(=O)[C@H](CC(N)=O)NC(=O)[C@@H](NC(=O)CCOCCOCC[N+](C)(C)C)C(C)(C)SSC(C)(C)[C@@H](C(=O)N[C@@H](Cc2ccc(OCCCCC[N+](C)(C)C)cc2)C(=O)N[C@@H](Cc2ccc3ccccc3c2)C(=O)NC2(C(=O)N[C@@H](C)C(=O)N[C@@H](CC(N)=O)C(=O)N[C@@H](Cc3cccnc3)C(=O)N(C)CC(=O)N(C)C)CCOCC2)NC1=O` [compound 317, cPEG3aCO-Pen(3)-N-T-7MeW-K(Ac)-Pen(3)-TMAPF-2Nal-THP-A-N-3Pya-Sar-CON(Me)2] ({Me3N+(CH2)2O(CH2)2O(CH2)2CO}-[Pen]NT[Trp(7-Me)]K(Ac)[Pen]Y(X3)[2Nal][Thp]AN[3Pal][Sar]-NMe2; disulfide 1-6), the EPSA was 158 A^2.
The result for `CC(=O)NCCCC[C@@H]1NC(=O)[C@H](Cc2c[nH]c3c(C)cccc23)NC(=O)[C@H]([C@@H](C)O)NC(=O)[C@H](CC(N)=O)NC(=O)[C@@H](NC(C)=O)C(C)(C)SSC(C)(C)[C@@H](C(=O)N[C@@H](Cc2ccc(OCCN)cc2)C(=O)N[C@@H](Cc2ccc3ccccc3c2)C(=O)N[C@@](C)(CCCCN)C(=O)N[C@H](CCCCNC(C)=O)C(=O)N[C@@H](CC(N)=O)C(=O)N[C@H](CC(C)C)C(=O)N(C)[C@H](Cc2ccc(O)cc2)C(N)=O)NC1=O` (racemic) [compound 6, MeCO-Pen(3)-N-T-7MeW-K(Ac)-Pen(3)-AEF-2Nal-aMeK-k(Ac)-N-dL-NMeDTyr-CONH2] reads 170 A^2; that for `CC(=O)NCCCC[C@@H]1NC(=O)[C@H](Cc2c[nH]c3c(C)cccc23)NC(=O)[C@H]([C@@H](C)O)NC(=O)[C@H](CC(N)=O)NC(=O)[C@@H](NC(C)=O)C(C)(C)SSC(C)(C)[C@@H](C(=O)N[C@@H](Cc2ccc(OCCNC(=O)CCOCCOCC[N+](C)(C)C)cc2)C(=O)N[C@@H](Cc2ccc3ccccc3c2)C(=O)NC2(C(=O)N[C@@H](CNC(C)=O)C(=O)N[C@@H](CC(N)=O)C(=O)N[C@@H](Cc3cccnc3)C(=O)N(C)CC(N)=O)CCOCC2)NC1=O` [compound 189], 144 A^2.
Regarding `CC(=O)N(C)CCCC[C@@H]1NC(=O)[C@H](Cc2c[nH]c3c(C)cccc23)NC(=O)[C@H]([C@@H](C)O)NC(=O)[C@H](CC(=O)N(C)C)NC(=O)[C@@H](NC(=O)CCOCCOCC[N+](C)(C)C)C(C)(C)SSC(C)(C)[C@@H](C(=O)N[C@@H](Cc2ccc(OCCN(C)CCC[N+](C)(C)CCCC[N+](C)(C)C)cc2)C(=O)N[C@@H](Cc2ccc3ccccc3c2)C(=O)NC2(C(=O)N[C@@H](CCCCN(C)C(C)=O)C(=O)N[C@@H](CC(N)=O)C(=O)N[C@@H](Cc3cccnc3)C(=O)N(C)CC(=O)N(C)C)CCOCC2)NC1=O` [compound 277, cPEG3aCO-Pen(3)-N(N(Me)2)-T-7MeW-K(NMeAc)-Pen(3)-AEF(SPD)-2Nal-THP-K(NMeAc)-N-3Pya-Sar-CON(Me)2] ({Me3N+(CH2)2O(CH2)2O(CH2)2CO}-[Pen]D(NMe2)T[Trp(7-Me)][Lys(Me)](Ac)[Pen]Y(X83)[2Nal][Thp][Lys(Me)](Ac)N[3Pal][Sar]-NMe2; disulfide 1-6), the EPSA was 154 A^2.
As to `CC(=O)NCCCC[C@@H]1NC(=O)[C@H](Cc2c[nH]c3c(C)cccc23)NC(=O)[C@H]([C@@H](C)O)NC(=O)[C@H](CC(N)=O)NC(=O)[C@@H](NC(C)=O)C(C)(C)SSC(C)(C)[C@@H](C(=O)N[C@@H](Cc2ccc(OCCN)cc2)C(=O)N[C@@H](Cc2ccc3ccccc3c2)C(=O)N[C@@](C)(CCCCN)C(=O)N[C@@H](CCCCNC(C)=O)C(=O)N[C@@H](CC(N)=O)C(=O)N[C@@H](Cc2c[nH]cn2)C(=O)N(C)[C@H](Cc2ccc(O)cc2)C(N)=O)NC1=O` [compound 8, MeCO-Pen(3)-N-T-7MeW-K(Ac)-Pen(3)-AEF-2Nal-aMeK-K(Ac)-N-H-NMeDTyr-CONH2] (Ac-[Pen]NT[Trp(7-Me)]K(Ac)[Pen][AEF][2Nal][αMeK]K(Ac)NH[dNMeY]-NH2; disulfide 1-6 (inferred)), the EPSA turned out to be 169 A^2.
The result for `CC(=O)N(C)CCCC[C@@H]1NC(=O)[C@H](Cc2c[nH]c3c(C)cccc23)NC(=O)[C@H]([C@@H](C)O)NC(=O)[C@H](CC(=O)N(C)C)NC(=O)[C@@H](NC(=O)CCOCCOCC[N+](C)(C)C)C(C)(C)SSC(C)(C)[C@@H](C(=O)N[C@@H](Cc2ccc(OCC3CCC([N+](C)(C)C)CC3)cc2)C(=O)N[C@@H](Cc2ccc3ccccc3c2)C(=O)NC2(C(=O)N[C@@H](CCCCN(C)C(C)=O)C(=O)N[C@@H](CC(N)=O)C(=O)N[C@@H](Cc3cccnc3)C(=O)N(C)CC(=O)N(C)C)CCOCC2)NC1=O` (single isomer, unassigned) [compound 210, cPEG3aCO-Pen(3)-N(N(Me)2)-T-7MeW-K(NMeAc)-Pen(3)-ACHMF-2Nal-THP-K(NMeAc)-N-3Pya-Sar-CON(Me)2] reads 145 A^2; that for `CC(=O)NCCCC[C@@H]1NC(=O)[C@H](Cc2c[nH]c3c(C)cccc23)NC(=O)[C@H]([C@@H](C)O)NC(=O)[C@H](CC(N)=O)NC(=O)[C@@H](NC(=O)C(F)(F)F)C(C)(C)SSC(C)(C)[C@@H](C(=O)N[C@@H](Cc2ccc(OCCN)cc2)C(=O)N[C@@H](Cc2ccc3ccccc3c2)C(=O)NC2(C(=O)N[C@@H](CCCCNC(C)=O)C(=O)N[C@@H](CC(N)=O)C(=O)N[C@@H](Cc3cccnc3)C(=O)N(C)CC(N)=O)CCOCC2)NC1=O` [compound 49] (Tfa-[Pen]NT[Trp(7-Me)]K(Ac)[Pen][AEF][2Nal][Thp]K(Ac)N[3Pal][Sar]-NH2; disulfide 1-6), 164 A^2; that for `CC(=O)NCCCC[C@@H]1NC(=O)[C@H](Cc2c[nH]c3c(C)cccc23)NC(=O)[C@H]([C@@H](C)O)NC(=O)[C@H](CC(N)=O)NC(=O)[C@@H](NC(=O)CCCCC[N+](C)(C)C)C(C)(C)SSC(C)(C)[C@@H](C(=O)N[C@@H](Cc2ccc(OCCN)cc2)C(=O)N[C@@H](Cc2ccc3ccccc3c2)C(=O)NC2(C(=O)N[C@@H](CNC(C)=O)C(=O)N[C@@H](CC(N)=O)C(=O)N[C@@H](Cc3cccnc3)C(=O)N(C)CC(N)=O)CCOCC2)NC1=O` [compound 99] ({Hexanoyl(6-NMe3+)}-[Pen]NT[Trp(7-Me)]K(Ac)[Pen][AEF][2Nal][Thp][Dap](Ac)N[3Pal][Sar]-NH2; disulfide 1-6 (inferred)), 164 A^2.
With `CC(=O)N(C)CCCC[C@@H]1NC(=O)[C@H](Cc2c[nH]c3c(C)cccc23)NC(=O)[C@H]([C@@H](C)O)NC(=O)[C@H](CC(=O)N(C)C)NC(=O)[C@@H](NC(=O)CCOCCOCC[N+](C)(C)C)C(C)(C)SSC(C)(C)[C@@H](C(=O)N[C@@H](Cc2ccc(OC/C=N\OCC[N+](C)(C)C)cc2)C(=O)N[C@@H](Cc2ccc3ccccc3c2)C(=O)NC2(C(=O)N[C@@H](CCCCN(C)C(C)=O)C(=O)N[C@@H](CC(N)=O)C(=O)N[C@@H](Cc3cccnc3)C(=O)N(C)CC(=O)N(C)C)CCOCC2)NC1=O` [compound 306, cPEG3aCO-Pen(3)-N(N(Me)2)-T-7MeW-K(NMeAc)-Pen(3)-Y(OZOXlMECh)-2Nal-THP-K(NMeAc)-N-3Pya-Sar-CON(Me)2] ({Me3N+(CH2)2O(CH2)2O(CH2)2CO}-[Pen]D(NMe2)T[Trp(7-Me)][Lys(Me)](Ac)[Pen]Y(X70)[2Nal][Thp][Lys(Me)](Ac)N[3Pal][Sar]-NMe2; disulfide 1-6) the figure was 153 A^2.
